Columns and labels:
[1] = test system: Rat Paw Edema; experiment: Rat paw edema assay (carrageenan-induced); assay type: in vivo, Male Sprague-Dawley rats; details: po, 1 hr before subplantar carrageenan, paw volume measured three hr later
Description: Male Sprague-Dawley rats (150-200 g) are fasted overnight and are given, po, either vehicle (1% methocel or 5% Tween 80) or a test compound. One hr later, a line is drawn using a permanent marker at the level above the ankle in one hind paw to define the area of the paw to be monitored. The paw volume (V0) is measured using a plethysmometer (Ugo-Basile, Italy) based on the principle of water displacement. The animals are then injected subplantarly with […] of 1% carrageenan solution in saline (FMC Corp, Maine) into the paw using an insulin syringe with a 25-gauge needle (i.e. […] carrageenan per paw). Three hr later, the paw volume (V3) is measured and the increases in paw volume (V3 - VO) are calculated. The animals are sacrificed by CO2 asphyxiation and the absence or presence of stomach lesions scored. Data is compared with the vehicle-control values and percent inhibition calculated. All treatment groups are coded to eliminate observer bias.

[2] = target: T1, human COX-1 (Homo sapiens, UniProt P23219); experiment: Whole cell COX-1 assay using CHO transfected cell line (PGE2 radioimmunoassay); assay type: cell-based; details: CHO [hCOX-1] cells; PGE2 synthesis in response to arachidonic acid
T1 construct: expressed in transfected cells; host or cells: CHO [hCOX-1], stably transfected with pCDNAIII
Description: Compounds are tested as inhibitors of cyclooxygenase activity in whole cell cyclooxygenase assays. These assays measure prostaglandin E2 synthesis in response to arachidonic acid, using a radioimmunoassay. Cells used for these assays are chinese hamster ovary (CHO) cell lines which have been stably transfected with an eukaryotic expression vector […] containing either the human Cox-1 or Cox-2 CDNA's. U937 cell microsomes are also used to measure Cox-1 activity.
Chinese hamster ovary (CHO) cell lines which have been stably transfected with an eukaryotic expression vector pCDNAIII containing either the human COX-1 or COX-2 cDNA's are used for the assay. These cell lines are referred to as CHO [hCOX-1] and CHO [hCOX-2], respectively. […]
Compounds of the present invention are inhibitors of cyclooxygenase-2 and are thereby useful in the treatment of cyclooxygenase-2 mediated diseases as enumerated above. […] In the assay, inhibition is determined by measuring the amount of prostaglandin E2 (PGE2) synthesized in the presence of arachidonic acid, cyclooxygenase-1 or cyclooxygenase-2 and a putative inhibitor.

T1 sequence (P23219 24-599): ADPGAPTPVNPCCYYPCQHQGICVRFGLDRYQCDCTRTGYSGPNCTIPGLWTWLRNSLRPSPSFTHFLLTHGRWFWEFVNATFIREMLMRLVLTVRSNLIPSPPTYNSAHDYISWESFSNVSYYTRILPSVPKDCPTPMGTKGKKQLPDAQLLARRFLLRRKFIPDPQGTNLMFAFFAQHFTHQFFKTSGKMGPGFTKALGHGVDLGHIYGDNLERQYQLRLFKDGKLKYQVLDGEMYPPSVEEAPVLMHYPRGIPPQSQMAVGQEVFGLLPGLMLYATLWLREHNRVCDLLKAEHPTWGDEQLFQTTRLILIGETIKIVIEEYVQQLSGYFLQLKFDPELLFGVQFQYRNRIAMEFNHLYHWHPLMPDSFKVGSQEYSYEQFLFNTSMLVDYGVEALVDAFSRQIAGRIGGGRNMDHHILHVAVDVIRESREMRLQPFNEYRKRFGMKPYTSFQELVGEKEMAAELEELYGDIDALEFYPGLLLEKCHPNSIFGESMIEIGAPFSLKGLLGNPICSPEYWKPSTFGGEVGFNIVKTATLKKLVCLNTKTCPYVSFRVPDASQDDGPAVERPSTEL

IC50 [2] | Structure (SMILES) | ED50 [1]
100 µM | C[C@@H](CF)COC1=C(c2ccc(S(C)(=O)=O)cc2)C(C)(C)OC1=O [Example 10, 3-(((2R)-3-Fluoro-2-methylpropyl)oxy)-5,5-dimethyl-4-(4-methylsulfonylphenyl)-5H-furan-2-one] | 3.2 mg/kg
> 50 µM | C[C@H](CF)COC1=C(c2ccc(S(C)(=O)=O)cc2)C(C)(C)OC1=O [Example 11, 3-(((2S)-3-fluoro-2-methylpropyl)oxy)-5,5-dimethyl-4-(4-methylsulfonylphenyl)-5H-furan-2-one] | 2.3 mg/kg

— EP0970067B1, “(METHYLSULFONYL)PHENYL-2-(5H)-FURANONES WITH OXYGEN LINK AS COX-2 INHIBITORS” (Merck Frosst Canada & Co., priority 1997, dated 1998)
